Source: US10392368B2, “Pyrazolo and triazolo bicyclic compounds as JAK kinase inhibitors” (THERAVANCE BIOPHARMA R&D IP, LLC, priority 2017, dated 2019)

Columns and labels:
JAK3 = biological target: T1, JAK3 (Homo sapiens, UniProt P52333); test: Biochemical JAK3 kinase assay (LanthaScreen); design: GST; purchased Life Technologies; settings: for Ki: read-out: JAK 3 (pKi) (converted)
T1 sequence (P52333 1-1124): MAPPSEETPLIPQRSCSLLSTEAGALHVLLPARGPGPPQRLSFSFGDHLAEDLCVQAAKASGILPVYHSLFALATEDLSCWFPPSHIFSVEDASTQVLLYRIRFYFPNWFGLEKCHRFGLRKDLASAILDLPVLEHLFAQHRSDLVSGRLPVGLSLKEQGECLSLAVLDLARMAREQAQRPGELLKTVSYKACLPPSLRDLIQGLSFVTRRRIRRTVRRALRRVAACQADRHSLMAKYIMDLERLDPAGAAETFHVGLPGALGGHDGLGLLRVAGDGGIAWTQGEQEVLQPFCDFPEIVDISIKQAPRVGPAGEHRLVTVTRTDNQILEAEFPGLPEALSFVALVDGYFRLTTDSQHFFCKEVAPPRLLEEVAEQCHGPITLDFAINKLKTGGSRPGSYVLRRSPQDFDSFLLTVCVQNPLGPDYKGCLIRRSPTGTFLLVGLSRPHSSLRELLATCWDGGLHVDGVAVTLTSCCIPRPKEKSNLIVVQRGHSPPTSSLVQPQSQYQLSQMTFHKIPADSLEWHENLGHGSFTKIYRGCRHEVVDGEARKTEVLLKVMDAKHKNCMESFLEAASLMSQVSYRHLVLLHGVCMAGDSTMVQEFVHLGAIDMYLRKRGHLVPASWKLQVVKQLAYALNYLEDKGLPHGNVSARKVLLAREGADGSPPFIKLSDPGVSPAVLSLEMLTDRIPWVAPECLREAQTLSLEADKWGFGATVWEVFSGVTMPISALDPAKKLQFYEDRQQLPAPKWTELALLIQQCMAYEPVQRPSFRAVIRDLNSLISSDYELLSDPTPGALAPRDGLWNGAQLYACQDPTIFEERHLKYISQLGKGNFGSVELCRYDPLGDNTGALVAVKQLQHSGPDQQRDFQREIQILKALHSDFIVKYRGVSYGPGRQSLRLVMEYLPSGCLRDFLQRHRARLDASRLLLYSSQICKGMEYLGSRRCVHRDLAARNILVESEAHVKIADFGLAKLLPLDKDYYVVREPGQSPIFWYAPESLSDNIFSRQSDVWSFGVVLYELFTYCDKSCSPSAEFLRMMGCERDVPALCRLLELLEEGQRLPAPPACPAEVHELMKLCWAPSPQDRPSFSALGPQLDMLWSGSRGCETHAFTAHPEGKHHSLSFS
Summary of the method: (§1)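 Values are pKi, calculated by Cheng-Prusoff from IC50 obtained by robust 4-parameter fitting of percent inhibition. The kinase reaction used GFP-STAT1 peptide in HEPES pH 7.5 buffer with MgCl2, EGTA and Brij-35, ATP-initiated after compound pre-incubation, 1 h at ambient temperature.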

[1] = tested on: oxazolone-induced colitis; test: Mouse model of oxazolone-induced colitis; type: in vivo
Procedure: Oxazolone-induced colitis is an experimental model that has a histological resemblance to human ulcerative colitis (Heller et al. Immunology, 2002, 17, 629-638). Adult BALB/C mice from Harlan were used in the assay. On day 1, animals were lightly anesthetized with isoflurane and the hairs between the shoulder were carefully removed before oxazolone (4%, 150 μL, 4:1 acetone:olive oil formulation) or vehicle solution was slowly applied for skin sensitization. Seven days after skin sensitization, the mice were fasted around 6 hours prior, anesthetized with ketamine/xylazine injection, and a 1 mL syringe equipped with a 3.5-F catheter, filled with oxazolone solution, was inserted carefully about 4 cm into the colon of the mouse. Following insertion, 50 μL of the oxazolone solution (0.8% in 1:1 ethanol:water formulation) was injected very slowly (over 30 sec using an injection pump) into the colon. Drug treatment (PO, QD or BID or TID) or vehicle was initiated a day prior to the oxazolone intrarectal (IR) challenge. Two-day post oxazolone intrarectal challenge, the disease was assessed by treatment-blinded experimenters for each mouse according to the criteria score: stool consistency score (0, normal; 2, loose; 4, diarrhea), gross bleeding score (0, absence; 2, blood tinged; 4, presence); Combined stool score endpoint=stool consistency score+stool blood score.
Select compounds were tested in the assay.

[2] = tested on: IL-2 stimulated pSTAT5 in Tall-1 T cells; test: Cellular JAK3 potency assay: inhibition of IL-2 stimulated pSTAT5 in Tall-1 T cells; type: cell-based, human; settings: for IC50: Homo sapiens, TALL-1, IL-2 stimulated pSTAT5 in Tall-1 T cells, read-out: Tall-1 (pIC50) (converted)
Summary of the method: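 Inhibition of IL-2-induced pSTAT5 was quantified by AlphaLisa in Tall-1 cell lysates. Compound exposure lasted 1 h before 30 min stimulation with 300 ng/ml IL-2 final.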

JAK1 = biological target: T2, JAK1 (Homo sapiens, UniProt P23458); test: Biochemical JAK1 kinase assay (LanthaScreen); settings: for Ki: read-out: JAK 1 (pKi) (converted)
T2 construct: GST; purchased Life Technologies
T2 sequence (P23458 whole entry): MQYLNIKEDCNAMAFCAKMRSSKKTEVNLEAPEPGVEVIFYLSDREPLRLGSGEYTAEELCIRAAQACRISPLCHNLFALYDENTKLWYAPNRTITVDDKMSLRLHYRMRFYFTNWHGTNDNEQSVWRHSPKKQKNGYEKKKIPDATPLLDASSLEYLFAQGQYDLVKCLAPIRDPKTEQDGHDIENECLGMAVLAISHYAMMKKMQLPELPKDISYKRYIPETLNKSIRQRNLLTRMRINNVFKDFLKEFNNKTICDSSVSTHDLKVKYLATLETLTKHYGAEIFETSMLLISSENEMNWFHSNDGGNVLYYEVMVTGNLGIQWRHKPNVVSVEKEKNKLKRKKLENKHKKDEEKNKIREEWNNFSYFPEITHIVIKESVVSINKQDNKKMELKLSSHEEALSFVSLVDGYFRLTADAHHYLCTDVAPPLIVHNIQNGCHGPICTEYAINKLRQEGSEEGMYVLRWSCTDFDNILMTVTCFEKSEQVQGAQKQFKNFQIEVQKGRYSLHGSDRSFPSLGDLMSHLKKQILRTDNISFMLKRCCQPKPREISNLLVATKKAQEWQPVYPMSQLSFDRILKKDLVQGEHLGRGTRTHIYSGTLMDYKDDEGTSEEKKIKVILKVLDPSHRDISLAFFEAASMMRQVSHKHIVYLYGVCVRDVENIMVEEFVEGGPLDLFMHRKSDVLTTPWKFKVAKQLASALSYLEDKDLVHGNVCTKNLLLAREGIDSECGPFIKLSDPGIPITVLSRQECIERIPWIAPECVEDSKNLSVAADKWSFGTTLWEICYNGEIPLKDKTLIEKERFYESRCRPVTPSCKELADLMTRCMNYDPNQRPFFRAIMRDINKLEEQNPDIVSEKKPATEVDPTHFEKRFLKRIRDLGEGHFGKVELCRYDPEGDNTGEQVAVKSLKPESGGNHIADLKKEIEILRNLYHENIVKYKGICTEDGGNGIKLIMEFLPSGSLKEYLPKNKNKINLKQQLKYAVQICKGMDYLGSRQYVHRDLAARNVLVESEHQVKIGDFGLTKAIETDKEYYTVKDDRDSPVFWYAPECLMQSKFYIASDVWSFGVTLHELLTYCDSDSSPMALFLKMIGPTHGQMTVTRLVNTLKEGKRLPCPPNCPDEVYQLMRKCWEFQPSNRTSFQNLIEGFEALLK
Summary of the method: as §1

JAK2 = biological target: T3, JAK2 (Homo sapiens, UniProt O60674); test: Biochemical JAK2 kinase assay (LanthaScreen); settings: for Ki: read-out: JAK 2 (pKi) (converted)
T3 construct: GST; purchased Life Technologies
T3 sequence (O60674 whole entry): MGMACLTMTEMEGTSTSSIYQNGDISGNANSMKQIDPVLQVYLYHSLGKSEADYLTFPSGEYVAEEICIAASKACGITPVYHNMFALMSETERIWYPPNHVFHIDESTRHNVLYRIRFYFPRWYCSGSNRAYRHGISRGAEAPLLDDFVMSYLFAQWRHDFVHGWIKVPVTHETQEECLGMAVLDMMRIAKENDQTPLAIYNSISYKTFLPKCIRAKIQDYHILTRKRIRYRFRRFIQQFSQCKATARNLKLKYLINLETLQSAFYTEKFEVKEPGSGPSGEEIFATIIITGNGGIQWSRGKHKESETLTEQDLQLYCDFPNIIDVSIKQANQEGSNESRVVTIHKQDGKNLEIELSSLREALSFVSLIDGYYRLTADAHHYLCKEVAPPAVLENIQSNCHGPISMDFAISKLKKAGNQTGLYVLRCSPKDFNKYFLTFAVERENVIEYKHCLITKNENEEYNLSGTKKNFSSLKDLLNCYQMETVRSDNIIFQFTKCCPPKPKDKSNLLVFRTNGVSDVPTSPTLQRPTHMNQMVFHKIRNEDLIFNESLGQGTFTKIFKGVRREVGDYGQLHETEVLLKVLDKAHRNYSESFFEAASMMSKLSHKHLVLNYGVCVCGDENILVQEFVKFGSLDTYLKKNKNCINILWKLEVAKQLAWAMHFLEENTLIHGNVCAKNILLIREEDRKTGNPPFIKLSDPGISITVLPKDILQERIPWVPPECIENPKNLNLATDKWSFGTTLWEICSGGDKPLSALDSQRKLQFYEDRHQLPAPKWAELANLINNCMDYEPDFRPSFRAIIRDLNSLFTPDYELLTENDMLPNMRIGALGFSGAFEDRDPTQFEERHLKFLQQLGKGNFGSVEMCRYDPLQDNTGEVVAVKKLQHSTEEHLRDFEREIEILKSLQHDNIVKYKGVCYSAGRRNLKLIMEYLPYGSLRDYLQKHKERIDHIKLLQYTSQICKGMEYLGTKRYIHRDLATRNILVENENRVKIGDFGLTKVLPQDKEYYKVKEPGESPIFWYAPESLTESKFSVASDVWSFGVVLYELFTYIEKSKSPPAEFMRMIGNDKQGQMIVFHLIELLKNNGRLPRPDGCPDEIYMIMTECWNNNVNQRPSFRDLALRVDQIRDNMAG
Summary of the method: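 pKi values derive from pIC50 via Cheng-Prusoff, with IC50 from a 4-parameter fit of percent-inhibition TR-FRET data using Tb-anti-pSTAT1 (pTyr701) detection. Compound, GST-JAK2 and GFP-STAT1 substrate were pre-incubated 1 h, then ATP started a 1 h ambient reaction (HEPES pH 7.5, 10 mM MgCl2, 1% DMSO).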

Tyk2 = biological target: T4, Tyk2 (Homo sapiens, UniProt P29597); test: Biochemical Tyk2 kinase assay (LanthaScreen); settings: for Ki: read-out: Tyk 2 (pKi) (converted)
T4 construct: GST; purchased Life Technologies
T4 sequence (P29597 whole entry): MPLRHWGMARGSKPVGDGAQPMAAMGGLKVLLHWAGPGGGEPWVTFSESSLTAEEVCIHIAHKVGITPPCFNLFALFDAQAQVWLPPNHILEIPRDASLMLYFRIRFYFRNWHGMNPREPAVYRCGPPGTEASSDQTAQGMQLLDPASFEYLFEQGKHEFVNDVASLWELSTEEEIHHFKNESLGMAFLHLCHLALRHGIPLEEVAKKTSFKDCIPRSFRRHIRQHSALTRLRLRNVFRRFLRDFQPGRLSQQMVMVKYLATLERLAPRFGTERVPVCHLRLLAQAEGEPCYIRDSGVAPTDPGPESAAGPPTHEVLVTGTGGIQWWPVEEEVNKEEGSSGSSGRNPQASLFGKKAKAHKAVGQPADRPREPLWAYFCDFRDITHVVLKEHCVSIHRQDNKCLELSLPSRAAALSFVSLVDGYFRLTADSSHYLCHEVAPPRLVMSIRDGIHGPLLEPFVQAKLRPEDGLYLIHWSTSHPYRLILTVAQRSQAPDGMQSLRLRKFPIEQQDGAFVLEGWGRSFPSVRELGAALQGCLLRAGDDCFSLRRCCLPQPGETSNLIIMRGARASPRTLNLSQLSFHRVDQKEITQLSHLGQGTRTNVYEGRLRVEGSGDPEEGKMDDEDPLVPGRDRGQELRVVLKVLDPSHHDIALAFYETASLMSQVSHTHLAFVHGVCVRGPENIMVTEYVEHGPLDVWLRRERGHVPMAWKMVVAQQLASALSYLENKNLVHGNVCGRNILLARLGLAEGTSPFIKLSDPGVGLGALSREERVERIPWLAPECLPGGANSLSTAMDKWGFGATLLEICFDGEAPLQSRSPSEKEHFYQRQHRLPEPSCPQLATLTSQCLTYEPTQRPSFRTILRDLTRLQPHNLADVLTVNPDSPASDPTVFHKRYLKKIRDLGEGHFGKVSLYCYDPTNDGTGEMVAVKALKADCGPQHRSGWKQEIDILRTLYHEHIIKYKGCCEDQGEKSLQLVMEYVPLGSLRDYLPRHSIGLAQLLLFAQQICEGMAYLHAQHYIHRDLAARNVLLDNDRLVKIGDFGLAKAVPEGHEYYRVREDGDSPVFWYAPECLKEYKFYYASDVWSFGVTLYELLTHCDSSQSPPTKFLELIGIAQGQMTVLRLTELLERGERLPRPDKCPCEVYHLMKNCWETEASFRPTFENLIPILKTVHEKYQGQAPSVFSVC
Summary of the method: as §1

[3] = selectivity: difference of pKi JAK3 and pKi JAK1
[4] = IL-2 stimulated pSTAT5 in Tall-1 T cells
[5] = selectivity JAK3 over JAK1, difference of pKi
[6] = IL-2 stimulated pSTAT5, Tall-1 T cells

Structure (SMILES) | Ki (JAK3) | JAK3 (pKi)-JAK1 (pKi) (JAK3; [3]) | combined stool score endpoint as compared with vehicle treated animals ([1]; 1 and 10 mg/kg only (PO, BID)) | IC50 [2] | Ki (JAK1) | Ki (JAK2) | Ki (Tyk2) | JAK 3 (pKi) (JAK3) | combined stool score endpoint as compared with vehicle treated animals ([1]; 3 mg/kg (PO, BID)) | Tall-1 (pIC50) [2, 4] | JAK 1 (pKi) (JAK1) | JAK 2 (pKi) (JAK2) | Tyk 2 (pKi) (Tyk2) | JAK3 (pKi)-JAK1 (pKi) (JAK3; [5]) | Tall-1 (pIC50) [2, 6]
CC(C)N(C)C/C=C/C(=O)N1CC(COc2cc(-c3ccc(O)cc3)cc3[nH]ncc23)C1 [Compound 3-113] | < 0.1 nM | A (a value of 3 or above) | statistically significant decrease | < 31.6 nM | > 100 nM | 10 to 100 nM | > 100 nM | – | – | – | – | – | – | – | –
CN(C)C/C=C/C(=O)N1CC(Oc2cc(-c3ccc(O)cc3)cc3[nH]ncc23)(C(F)F)C1 [Compound 5-10] | – | A (a value of 3 or above) | – | – | – | – | – | B (a pKi value between 9 and 10 (Ki between 1 nM and 0.1 nM)) | statistically significant decrease | B (a pIC50 value between 6.7 (included) and 7.5 (IC50 between 200 nM and 32 nM)) | E (a pKi value of 7 or below (Ki of 100 nM or above)) | – | – | – | –
C=CC(=O)N1CC(C(C)(C)Oc2cc(-c3ccc(O)c(Cl)c3)nc3[nH]ncc23)C1 [Compound 3-80] | – | A (a value of 3 or above) | – | – | – | – | – | A (a pKi value≥10 (Ki≤0.1 nM)) | statistically significant decrease | B (a pIC50 value between 6.7 (included) and 7.5 (IC50 between 200 nM and 32 nM)) | E (a pKi value of 7 or below (Ki of 100 nM or above)) | E (a pKi value of 7 or below (Ki of 100 nM or above)) | E (a pKi value of 7 or below (Ki of 100 nM or above)) | – | –
CN(C)C/C=C/C(=O)N1CC(C)(COc2nc(-c3ccc(O)cc3)cc3[nH]ncc23)C1 [Compound 3-55] | – | A (a value of 3 or above) | – | – | – | – | – | A (a pKi value≥10 (Ki≤0.1 nM)) | statistically significant decrease | B (a pIC50 value between 6.7 (included) and 7.5 (IC50 between 200 nM and 32 nM)) | E (a pKi value of 7 or below (Ki of 100 nM or above)) | E (a pKi value of 7 or below (Ki of 100 nM or above)) | E (a pKi value of 7 or below (Ki of 100 nM or above)) | – | –
CN(C)CC=CC(=O)N1CCCC(Oc2cc(-c3ccc(O)c(F)c3)cc3[nH]ncc23)C1 (centres unmarked) [Compound 8-4] | – | – | – | – | – | – | – | B (a pKi value between 9 and 10 (Ki between 1 nM and 0.1 nM)) | – | – | E (a pKi value of 7 or below (Ki of 100 nM or above)) | D (a pKi value between 7 and 8 (Ki between 100 nM and 10 nM)) | E (a pKi value of 7 or below (Ki of 100 nM or above)) | B (a value of 2.3 to 3) | B (a pIC50 value between 6.7 (included) and 7.5 (IC50 between 200 nM and 32 nM))
CCC1(COc2cc(-c3ccc(O)c(Cl)c3)nc3[nH]ncc23)CN(C(=O)/C=C/CN(C)C)C1 [Compound 3-68] | – | B (a value of 2.3 to 3) | – | – | – | – | – | B (a pKi value between 9 and 10 (Ki between 1 nM and 0.1 nM)) | – | C (a pIC50 value between 6 and 6.7 (IC50 between 1 μM and 200 nM)) | D (a pKi value between 7 and 8 (Ki between 100 nM and 10 nM)) | E (a pKi value of 7 or below (Ki of 100 nM or above)) | E (a pKi value of 7 or below (Ki of 100 nM or above)) | – | –
CN(C)C/C=C/C(=O)N1CC(CSc2cc(-c3ccc(O)c(F)c3)cc3[nH]ncc23)C1 [Compound 13-5] | – | – | – | – | – | – | – | A (a pKi value≥10 (Ki≤0.1 nM)) | – | – | E (a pKi value of 7 or below (Ki of 100 nM or above)) | D (a pKi value between 7 and 8 (Ki between 100 nM and 10 nM)) | E (a pKi value of 7 or below (Ki of 100 nM or above)) | A (a value of 3 or above) | B (a pIC50 value between 6.7 (included) and 7.5 (IC50 between 200 nM and 32 nM))
C=CC(=O)N1CCO[C@@H](C(=O)Nc2nc(-c3ccc(O)c(F)c3)cc3[nH]ncc23)C1 [Compound 13-21] | – | – | – | – | – | – | – | B (a pKi value between 9 and 10 (Ki between 1 nM and 0.1 nM)) | – | – | E (a pKi value of 7 or below (Ki of 100 nM or above)) | D (a pKi value between 7 and 8 (Ki between 100 nM and 10 nM)) | E (a pKi value of 7 or below (Ki of 100 nM or above)) | B (a value of 2.3 to 3) | A (a pIC50 value≥7.5 (IC50≤32 nM))
CSC1CCN(C/C=C/C(=O)N2CC(COc3cc(-c4ccc(O)cc4)cc4[nH]ncc34)C2)C1 (centres unmarked) [Compound 3-125] | 0.1 to 1 nM | A (a value of 3 or above) | – | 31.6 to 200 nM | > 100 nM | > 100 nM | > 100 nM | – | – | – | – | – | – | – | –
C=CC(=O)N1CC[C@H](Oc2cc(-c3ccc(O)cc3)cc3[nH]nc(OC)c23)C1 [Compound 1-44] | < 0.1 nM | A (a value of 3 or above) | – | < 31.6 nM | > 100 nM | > 100 nM | > 100 nM | – | – | – | – | – | – | – | –
